US20060128721A1, “Novel formulations of opioid-based treatments of pain comprising substituted 1,4-di-piperidin-4-yl-piperazine derivatives” (priority 2003, published 2006)

Columns and labels:
[1] = molecular target: T1, cloned human h-NK3 receptors expressed in CHO cells (Homo sapiens, UniProt P29371); experiment: Binding experiment for h-NK3 receptors ([3H]-SR-142801 displacement); details: [3H]-SR-142801, CHO cells; read-out: h-NK3 pIC50 (converted)
T1 construct: expressed in transfected cells; host or cells: CHO cells
T1 sequence (P29371 1-465): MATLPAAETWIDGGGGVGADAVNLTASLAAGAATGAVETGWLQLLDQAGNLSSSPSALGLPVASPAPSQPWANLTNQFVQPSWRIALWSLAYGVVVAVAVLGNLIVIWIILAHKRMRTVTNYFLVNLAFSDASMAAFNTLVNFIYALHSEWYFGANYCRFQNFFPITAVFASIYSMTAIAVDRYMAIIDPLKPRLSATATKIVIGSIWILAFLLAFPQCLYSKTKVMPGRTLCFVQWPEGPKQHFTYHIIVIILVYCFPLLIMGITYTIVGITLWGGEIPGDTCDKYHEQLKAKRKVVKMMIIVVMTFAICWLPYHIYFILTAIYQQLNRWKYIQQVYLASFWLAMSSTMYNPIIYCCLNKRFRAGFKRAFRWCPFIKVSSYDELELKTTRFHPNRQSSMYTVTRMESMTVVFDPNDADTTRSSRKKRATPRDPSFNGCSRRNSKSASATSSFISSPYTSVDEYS
Protocol: (§1) The compounds according to the invention were investigated for interaction with various neurotransmitter receptors, ion channels and transporter binding sites using the radioligand binding technique. Membranes from tissue homogenates or from cells, expressing the receptor or transporter of interests, were incubated with a radioactively labelled substance ([^3H]- or [^125I] ligand) to label a particular receptor. […] Following incubation, labelled membranes were harvested and rinsed with excessive cold buffer to remove non-bound radioactivity by rapid filtration under suction. Membrane bound radioactivity was counted in a scintillation counter and results were expressed in counts per minute (cpm).
(§2) The compounds were dissolved in DMSO and tested at 10 concentrations ranging from 10^−10 to 10^−5 M.
(§3) The ability of the compounds according to the invention to displace [^3H]-Substance P from cloned human h-NK1 receptors expressed in CHO cells, to displace [^3H]-SR-48968 from cloned human h-NK2 receptors expressed in Sf9 cells, and to displace [^3H]-SR-142801 from cloned human h-NK3 receptors expressed in CHO cells was evaluated.

[2] = molecular target: T2, cloned human h-NK2 receptors expressed in Sf9 cells (Homo sapiens, UniProt P21452); experiment: Binding experiment for h-NK2 receptors ([3H]-SR-48968 displacement); details: [3H]-SR-48968, Sf9 cells; read-out: h-NK2 pIC50 (converted)
T2 construct: expressed in transfected cells; host or cells: Sf9 cells
T2 sequence (P21452 1-398): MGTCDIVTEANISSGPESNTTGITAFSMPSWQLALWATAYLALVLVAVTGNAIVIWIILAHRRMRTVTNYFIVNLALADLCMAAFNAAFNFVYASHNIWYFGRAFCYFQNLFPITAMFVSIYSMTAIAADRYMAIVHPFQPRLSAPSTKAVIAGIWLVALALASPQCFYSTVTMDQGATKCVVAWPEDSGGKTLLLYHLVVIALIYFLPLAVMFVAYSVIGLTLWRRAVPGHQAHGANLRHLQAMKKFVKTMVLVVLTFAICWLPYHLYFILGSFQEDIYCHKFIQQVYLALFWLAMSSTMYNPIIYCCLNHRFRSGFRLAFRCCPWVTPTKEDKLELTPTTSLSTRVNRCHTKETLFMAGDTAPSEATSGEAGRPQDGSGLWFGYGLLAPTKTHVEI
Protocol: as §1, §2, §3

[3] = molecular target: T3, cloned human h-NK1 receptors expressed in CHO cells (Homo sapiens, UniProt P25103); experiment: Binding experiment for h-NK1 receptors ([3H]-Substance P displacement); details: read-out: h-NK1 pIC50 (converted)
T3 construct: expressed in transfected cells; host or cells: CHO cells
T3 sequence (P25103 whole entry): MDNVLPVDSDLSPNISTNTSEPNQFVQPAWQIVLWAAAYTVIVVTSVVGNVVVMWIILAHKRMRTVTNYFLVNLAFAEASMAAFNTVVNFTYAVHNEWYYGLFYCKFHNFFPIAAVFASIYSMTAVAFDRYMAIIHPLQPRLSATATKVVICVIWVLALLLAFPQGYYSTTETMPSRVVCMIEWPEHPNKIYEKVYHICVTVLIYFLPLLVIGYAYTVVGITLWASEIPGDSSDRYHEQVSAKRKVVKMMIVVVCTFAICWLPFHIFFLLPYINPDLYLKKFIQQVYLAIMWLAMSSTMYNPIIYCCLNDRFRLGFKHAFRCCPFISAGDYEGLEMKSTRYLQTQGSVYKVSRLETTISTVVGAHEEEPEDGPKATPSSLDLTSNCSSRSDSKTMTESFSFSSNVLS
Protocol: as §1, §2, §3

Cc1cc(C)cc(C(=O)N2CCC(N3CCN(C4CCN(C(=O)c5cc(C(F)(F)F)cc(C(F)(F)F)c5)C(Cc5ccccc5)C4)CC3)CC2Cc2ccccc2)c1 (single isomer, unassigned) [Compound 10]
IC50 [1]: 631 nM | IC50 [2]: 398 nM | IC50 [3]: 50.1 nM

Cc1cc(C)cc(C(=O)N2CCC(N3CCN(C4CCN(C(=O)c5cc(C(F)(F)F)cc(C(F)(F)F)c5)C(Cc5ccccc5)C4)CC3)CC2Cc2ccccc2)c1 (single isomer, unassigned) [Compound 11]
IC50 [1]: 251 nM | IC50 [2]: 631 nM | IC50 [3]: 39.8 nM

O=C(c1cc(C(F)(F)F)cc(C(F)(F)F)c1)N1CCC(N2CCN(C3CCNCC3)CC2)CC1Cc1ccccc1 (centres unmarked) [Compound 2]
IC50 [1]: 6310 nM | IC50 [2]: 1580 nM | IC50 [3]: 2.51 nM

Cc1oncc1C(=O)N1CCC(N2CCN(C3CCN(C(=O)c4cc(C(F)(F)F)cc(C(F)(F)F)c4)C(Cc4ccccc4)C3)CC2)CC1 (centres unmarked) [Compound 4]
IC50 [1]: 200 nM | IC50 [2]: 6310 nM | IC50 [3]: 1.58 nM

O=C(c1ccsc1)N1CCC(N2CCN(C3CCN(C(=O)c4cc(C(F)(F)F)cc(C(F)(F)F)c4)C(Cc4ccccc4)C3)CC2)CC1 (centres unmarked) [Compound 5]
IC50 [1]: 501 nM | IC50 [2]: 794 nM | IC50 [3]: 0.1 nM

Cn1cccc1CN1CCC(N2CCN(C3CCN(C(=O)c4cc(C(F)(F)F)cc(C(F)(F)F)c4)C(Cc4ccccc4)C3)CC2)CC1 (centres unmarked) [Compound 9]
IC50 [1]: 501 nM | IC50 [2]: 631 nM | IC50 [3]: 1.26 nM

O=C(c1cc(C(F)(F)F)cc(C(F)(F)F)c1)N1CCC(N2CCN(C3CCN(C(=O)n4ccnc4)CC3)CC2)CC1Cc1ccccc1 (centres unmarked) [Compound 12]
IC50 [1]: 794 nM | IC50 [2]: 1000 nM | IC50 [3]: 0.794 nM

NC(Cc1ccc(O)cc1)C(=O)N1CCC(N2CCN(C3CCN(C(=O)c4cc(C(F)(F)F)cc(C(F)(F)F)c4)C(Cc4ccccc4)C3)CC2)CC1 (centres unmarked) [Compound 13]
IC50 [1]: 1000 nM | IC50 [2]: 631 nM | IC50 [3]: 1.26 nM

O=C(c1cc(C(F)(F)F)cc(C(F)(F)F)c1)N1CC[C@H](N2CCN(C3CCN(c4ncccn4)CC3)CC2)C[C@H]1Cc1ccccc1 [Compound 16]
IC50 [1]: 158 nM | IC50 [2]: 501 nM | IC50 [3]: 1 nM

Cc1cc(C)cc(CN2CCC(N3CCN([C@H]4CCN(C(=O)c5cc(C(F)(F)F)cc(C(F)(F)F)c5)[C@H](Cc5ccccc5)C4)CC3)CC2)c1 [Compound 22]
IC50 [1]: 316 nM | IC50 [2]: 631 nM | IC50 [3]: 0.398 nM

O=C(c1cc(C(F)(F)F)cc(C(F)(F)F)c1)N1CCC(N2CCN(C3CCN(Cc4cc(C(F)(F)F)cc(C(F)(F)F)c4)CC3)CC2)CC1Cc1ccccc1 (centres unmarked) [Compound 26]
IC50 [1]: 1000 nM | IC50 [2]: 1000 nM | IC50 [3]: 39.8 nM

O=C(c1cccc(Cl)c1)N1CCC(N2CCN([C@H]3CCN(C(=O)c4cc(C(F)(F)F)cc(C(F)(F)F)c4)[C@H](Cc4ccccc4)C3)CC2)CC1 [Compound 32]
IC50 [1]: 158 nM | IC50 [2]: 631 nM | IC50 [3]: 1.58 nM

O=C(c1ccccc1O)N1CCC(N2CCN([C@H]3CCN(C(=O)c4cc(C(F)(F)F)cc(C(F)(F)F)c4)[C@H](Cc4ccccc4)C3)CC2)CC1 [Compound 36]
IC50 [1]: 794 nM | IC50 [2]: 794 nM | IC50 [3]: 1 nM

Cc1cccc(C(=O)N2CCC(N3CCN([C@H]4CCN(C(=O)c5cc(C(F)(F)F)cc(C(F)(F)F)c5)[C@H](Cc5ccccc5)C4)CC3)CC2)c1 [Compound 37]
IC50 [1]: 251 nM | IC50 [2]: 501 nM | IC50 [3]: 3.98 nM

N#Cc1cccc(C(=O)N2CCC(N3CCN([C@H]4CCN(C(=O)c5cc(C(F)(F)F)cc(C(F)(F)F)c5)[C@H](Cc5ccccc5)C4)CC3)CC2)c1 [Compound 39]
IC50 [1]: 1000 nM | IC50 [2]: 1000 nM | IC50 [3]: 0.794 nM

O=C(c1cc(F)cc(F)c1)N1CCC(N2CCN([C@H]3CCN(C(=O)c4cc(C(F)(F)F)cc(C(F)(F)F)c4)[C@H](Cc4ccccc4)C3)CC2)CC1 [Compound 51]
IC50 [1]: 398 nM | IC50 [2]: 631 nM | IC50 [3]: 1.26 nM

Cc1ccc(O)c(C(=O)N2CCC(N3CCN([C@H]4CCN(C(=O)c5cc(C(F)(F)F)cc(C(F)(F)F)c5)[C@H](Cc5ccccc5)C4)CC3)CC2)c1 [Compound 56]
IC50 [1]: 200 nM | IC50 [2]: 501 nM | IC50 [3]: 1 nM

O=C(c1cc(F)c(F)cc1F)N1CCC(N2CCN([C@H]3CCN(C(=O)c4cc(C(F)(F)F)cc(C(F)(F)F)c4)[C@H](Cc4ccccc4)C3)CC2)CC1 [Compound 62]
IC50 [1]: 251 nM | IC50 [2]: 398 nM | IC50 [3]: 0.631 nM

COc1cc(C(=O)N2CCC(N3CCN([C@H]4CCN(C(=O)c5cc(C(F)(F)F)cc(C(F)(F)F)c5)[C@H](Cc5ccccc5)C4)CC3)CC2)cc(OC)c1OC [Compound 65]
IC50 [1]: 251 nM | IC50 [2]: 631 nM | IC50 [3]: 3.98 nM

O=C(c1ccccn1)N1CCC(N2CCN([C@H]3CCN(C(=O)c4cc(C(F)(F)F)cc(C(F)(F)F)c4)[C@H](Cc4ccccc4)C3)CC2)CC1 [Compound 79]
IC50 [1]: 398 nM | IC50 [2]: 316 nM | IC50 [3]: 6.31 nM

O=C(c1cccnc1)N1CCC(N2CCN([C@H]3CCN(C(=O)c4cc(C(F)(F)F)cc(C(F)(F)F)c4)[C@H](Cc4ccccc4)C3)CC2)CC1 [Compound 80]
IC50 [1]: 251 nM | IC50 [2]: 794 nM | IC50 [3]: 0.501 nM

CC(C)(C)OC(=O)N1CCCCC1C(=O)N1CCC(N2CCN([C@H]3CCN(C(=O)c4cc(C(F)(F)F)cc(C(F)(F)F)c4)[C@H](Cc4ccccc4)C3)CC2)CC1 (some centres unmarked) [Compound 89]
IC50 [1]: 631 nM | IC50 [2]: 631 nM | IC50 [3]: 2.51 nM

CC(C)(C)OC(=O)N1Cc2ccccc2C[C@H]1C(=O)N1CCC(N2CCN([C@H]3CCN(C(=O)c4cc(C(F)(F)F)cc(C(F)(F)F)c4)[C@H](Cc4ccccc4)C3)CC2)CC1 [Compound 90]
IC50 [1]: 126 nM | IC50 [2]: 316 nM | IC50 [3]: 31.6 nM

Cc1cccc(C)c1NC(=O)CN1CCC(N2CCN([C@H]3CCN(C(=O)c4cc(C(F)(F)F)cc(C(F)(F)F)c4)[C@H](Cc4ccccc4)C3)CC2)CC1 [Compound 97]
IC50 [1]: 398 nM | IC50 [2]: 501 nM | IC50 [3]: 0.316 nM

COCC(=O)N1CCC(N2CCN([C@H]3CCN(C(=O)c4cc(C(F)(F)F)cc(C(F)(F)F)c4)[C@H](Cc4ccccc4)C3)CC2)CC1 [Compound 104]
IC50 [1]: 1580 nM | IC50 [2]: 1580 nM | IC50 [3]: 0.631 nM

COc1cc(CC(=O)N2CCC(N3CCN([C@H]4CCN(C(=O)c5cc(C(F)(F)F)cc(C(F)(F)F)c5)[C@H](Cc5ccccc5)C4)CC3)CC2)cc(OC)c1OC [Compound 106]
IC50 [1]: 501 nM | IC50 [2]: 1000 nM | IC50 [3]: 1 nM

O=C(C(c1ccccc1)N1CCCC1)N1CCC(N2CCN(C3CCN(C(=O)c4cc(C(F)(F)F)cc(C(F)(F)F)c4)C(Cc4ccccc4)C3)CC2)CC1 (centres unmarked) [Compound 113]
IC50 [1]: 398 nM | IC50 [2]: 398 nM | IC50 [3]: 1 nM

O=C(C(c1ccccc1)N1CCOCC1)N1CCC(N2CCN([C@H]3CCN(C(=O)c4cc(C(F)(F)F)cc(C(F)(F)F)c4)[C@H](Cc4ccccc4)C3)CC2)CC1 (some centres unmarked) [Compound 116]
IC50 [1]: 158 nM | IC50 [2]: 794 nM | IC50 [3]: 2.51 nM

COc1ccc(C)cc1S(=O)(=O)N1CCC(N2CCN(C3CCN(C(=O)c4cc(C(F)(F)F)cc(C(F)(F)F)c4)C(Cc4ccccc4)C3)CC2)CC1 (centres unmarked) [Compound 119]
IC50 [1]: 1000 nM | IC50 [2]: 1000 nM | IC50 [3]: 25.1 nM

Cc1nnsc1C(=O)N1CCC(N2CCN([C@@H]3CCN(C(=O)c4cc(C(F)(F)F)cc(C(F)(F)F)c4)[C@H](Cc4ccccc4)C3)CC2)CC1 [Compound 139]
IC50 [1]: 316 nM | IC50 [2]: 794 nM | IC50 [3]: 1.58 nM

Cc1nnsc1C(=O)N1CCC(N2CCN([C@H]3CCN(C(=O)c4cc(C(F)(F)F)cc(C(F)(F)F)c4)[C@@H](Cc4ccccc4)C3)CC2)CC1 [Compound 140]
IC50 [1]: 5010 nM | IC50 [2]: 3980 nM | IC50 [3]: 3.16 nM

O=C(c1snnc1CO)N1CCC(N2CCN(C3CCN(C(=O)c4cc(C(F)(F)F)cc(C(F)(F)F)c4)C(Cc4ccccc4)C3)CC2)CC1 (centres unmarked) [Compound 144]
IC50 [1]: 631 nM | IC50 [2]: 1260 nM
